How the values were obtained:
[1] = system: MR49F enzalutamide-resistant prostate cancer cells; experiment: Cell viability (CellTiter-Blue) with Chou-Talalay combination index, MR49F; type: cell-based; conditions: in combination with BMH-21, constant concentrations, 48 h, CI<1 synergism
Experimental: (§1) Cell viability was measured using Cell TiterBlue, and Chou-Talalay Combination Index analysis was performed. CI<1 denotes synergism. Effect denotes the combinatory drug activity where 1 represents 100% kill.
(§2) Cells were maintained at 37° C. in a humidified atmosphere containing 5% CO2. […] Effect denotes the combinatory drug activity where 1 represents 100% kill.

LC3-II in MR49F cells = experiment: LC3-II western blotting and immunofluorescence staining; type: cell-based; conditions: 24 h
Experimental: as §1
(§3) Immunofluorescence and Epifluorescence Microscopy. Cells grown on coverslips were fixed in 3.5% paraformaldehyde, permeabilized with 0.5% NP-40 and blocked with 3% BSA. Cells were stained for LC3-II and cleaved caspase-3 (Cell Signaling). Alexa 488-conjugated secondary antibodies were from Invitrogen. DNA was counterstained with DAPI (Invitrogen). Images were captured using Axioplan2 fluorescence microscope (Zeiss) equipped with AxioCam HRc CCD-camera and AxioVision 4.5 software using EC Plan-Neofluar 20× or 40× objectives (Zeiss).
Immunoblotting. Cells were lysed in 0.5% NP-40 buffer (25 mM Tris-HCl, pH 8.0, 120 mM NaCl, 0.5% NP-40, 4 mM NaF, 100 μM Na3VO4, 100 KIU/ml aprotinin, 10 μg/ml leupeptin) or RIPA lysis buffer. Proteins were separated on SDS-PAGE, blotted, probed for respective proteins and detected using ECL (Amersham). The primary antibodies used for detection were LC3-II and cleaved caspase-3 (Cell Signaling). HRP-conjugated secondary antibodies were from DAKO or Santa Cruz Biotechnology.

[2] = system: HCT116 p53+/+ colon carcinoma cells; experiment: Cell viability (CellTiter-Blue) with Chou-Talalay combination index, HCT116 p53+/+; type: cell-based; conditions: in combination with BMH-21, HCT116 p53+/+ cells, 48 h
Experimental: (§4) Data represent N=2 biological assays each conducted in triplicate. […] Chou-Talalay plots are shown. Data represents N=2 biological assays each conducted in triplicate.
(§5) Cells and Viability Assay. A375 melanoma and LNCaP prostate cancer cells were from American Type Culture Collection. HCT116 p53+/+ and −/− cells were from Dr. F. Bunz. MR49F cells were from Dr. M. Gleave. Cells were maintained at 37° C. in a humidified atmosphere containing 5% CO2. Cells were plated in 96-well plates at a density of 3,000 cells/well in triplicate and incubated for 48 h with the compounds. Viability was determined using CellTiter-Blue Cell Viability Assay (Promega) according to manufacturer's instructions. Chou-Talaley algorithm (Compusyn) was used to define the combination index (CI) where CI<1 denotes synergism, CI>1 denotes antagonism and CI=1 is additive. Effect denotes the combinatory drug activity where 1 represents 100% kill.
(§6) The inventors tested these combinations in three different cell lines (A375 melanoma cells, HCT116 p53+/+ and HCT116 p53−/− colon carcinoma cells).

[3] = system: HCT116 p53−/− colon carcinoma cells; experiment: Cell viability (CellTiter-Blue) with Chou-Talalay combination index, HCT116 p53-/-; type: cell-based; conditions: in combination with BMH-21, HCT116 p53−/− cells, 48 h
Experimental: as §4, §5, §6

[4] = system: A375 human melanoma cells; experiment: Cell viability (CellTiter-Blue) with Chou-Talalay combination index, A375; type: cell-based; conditions: in combination with BMH-21, constant concentrations, 48 h, CI<1 synergism, CI>1 antagonism
Experimental: as §2

MR49F cells = experiment: Cleaved caspase-3 and DNA staining, MR49F; type: cell-based; conditions: for massive apoptotic response, single treatment: either treatment alone
Excerpt: as §3, with “The inset bars represent sub-G1 cells. (B) The percentage of sub-G1 cells from A is plotted over time. (C) Staining of the cells for the apoptosis marker caspase-3. Immunofluorescence” for “Immunofluorescence”

RPA194 = conditions: previously demonstrated; cited from earlier work
LNCaP cells = experiment: Cleaved caspase-3 and DNA staining, LNCaP; type: cell-based; conditions: for massive apoptotic response, single treatment: either treatment alone
Excerpt: as §3, with “The inset bars represent sub-G1 cells. (B) The percentage of sub-G1 cells from A is plotted over time. (C) Staining of the cells for the apoptosis marker caspase-3. Immunofluorescence” for “Immunofluorescence”

NCI60 cancer cell lines = conditions: previously demonstrated; cited from earlier work
tumor xenograft = conditions: previously demonstrated; cited from earlier work
[5] = system: LNCaP prostate cancer cells; experiment: Cell viability (CellTiter-Blue) with Chou-Talalay combination index, LNCaP; type: cell-based; conditions: in combination with BMH-21, LNCaP cells, 48 h
Experimental: Cell viability was measured using Cell TiterBlue, and the mean of triplicate samples is shown. (B) Chou-Talalay combination index (CI) analysis was used to determine the drug interactions (blue curve). CI<1 denotes synergism. Red bar, C=1 additive effect. Fraction dead cells denotes the combinatory drug activity where 1 represents 100% kill.
as §5

[6] = BMH-21 plus Avasimibe combination

| Molecule | drug interaction with BMH-21 (Chou-Talalay combination index on cell viability) [1] | drug interaction with BMH-21 (Chou-Talalay combination index on cell viability) [2] | drug interaction with BMH-21 (Chou-Talalay combination index on cell viability) [3] | drug interaction with BMH-21 (Chou-Talalay combination index on cell viability) [4] | massive apoptotic response, single treatment (MR49F cells) | massive apoptotic response, single treatment (LNCaP cells) | further results |
| --- | --- | --- | --- | --- | --- | --- | --- |
| Bafilomycin | synergistic cell death |  |  |  |  |  |  |
| CCN(CC)CCCC(C)Nc1ccnc2cc(Cl)ccc12 (centres unmarked) [chloroquine] |  |  |  |  |  |  | number of LC3-II puncta (LC3-II in MR49F cells; co-treatment with BMH-21 (1 μM)): significant increase; expression of LC3-II (marker for autophagy inhibition) (LC3-II in MR49F cells; combination with BMH-21 (1 μM), western blotting and immunofluorescence): increased |
| Cn1ncnc1[C@H]1c2n[nH]c(=O)c3cc(F)cc(c23)N[C@@H]1c1ccc(F)cc1 [BMN-673] |  | synergistically | synergistically | synergistically |  |  |  |
| CN(C)CCNC(=O)c1cccn2c(=O)c3cc4ccccc4cc3nc12 [BMH-21, 12H-Benzo[g]pyrido[2,1-b]quinazoline-4-carboxamide, N-[2(dimethylamino)ethyl]-12-oxo] |  |  |  |  | not observed | not observed | degradation of RPA194 (RPA194): causes proteasome-mediated degradation of RPA194; anticancer activity in NCI60 cancer cell lines (NCI60 cancer cell lines): broad and potent anticancer activity; tumor burden in mouse xenograft assays (tumor xenograft): reduced tumor burden |
| CC(C)c1cc(C(C)C)c(CC(=O)NS(=O)(=O)Oc2c(C(C)C)cccc2C(C)C)c(C(C)C)c1 [Avasimibe] | prominent synergistic activities |  |  |  | not observed | not observed | apoptosis by cleaved caspase-3 and DNA staining, combination (MR49F cells; [6]): prominent cell apoptosis; apoptosis by cleaved caspase-3 and DNA staining, combination (LNCaP cells; [6]): prominent cell apoptosis; drug interaction with BMH-21 (cell viability, Chou-Talalay combination index) [5]: synergistic cancer cell death |
| O=C(c1cc(Cc2n[nH]c(=O)c3ccccc23)ccc1F)N1CCN(C(=O)C2CC2)CC1 [olaparib, 4-[[3-[4-(cyclopropanecarbonyl)piperazine-1-carbonyl]-4-fluorophenyl]methyl]-2H-phthalazin-1-one] |  | synergistically | synergistically | synergistically |  |  |  |
